From patent US4579730A (Hadassah Medical Organization, priority 1983, dated 1986)

Assays:
[1] = Function of sodium cholate as bile acid carrier of insulin and protease inhibitor agent
diabetic dog = test: Glucose levels in a diabetic dog after administration of insulin (oral enterocoated capsule; intramuscular comparison); type: in vivo; details: 0.5 u/kg intramuscular injection
blood glucose levels = details: insulin mixed with bile salts, through the rectum, dose of 48 μ/kg; cited from earlier work

Row | Compound | function as bile acid carrier of the insulin and protease inhibitor agent [1] | Glucose (diabetic dog; 0 min) | Glucose (diabetic dog; 10 min) | Glucose (diabetic dog; 20 min) | Glucose (diabetic dog; 30 min) | Glucose (diabetic dog; 45 min) | Glucose (diabetic dog; 60 min) | Glucose (diabetic dog; 75 min) | Glucose (diabetic dog; 90 min) | Glucose (diabetic dog; 120 min) | Glucose (diabetic dog; 150 min) | Glucose (diabetic dog; 180 min) | reduction of blood glucose levels (blood glucose levels)
1 | C[C@H](CCC(=O)[O-])[C@H]1CC[C@H]2[C@@H]3[C@H](O)C[C@@H]4C[C@H](O)CC[C@]4(C)[C@H]3C[C@H](O)[C@]12C.[Na+] [sodium cholate] | can simultaneously function both as the bile acid carrier of the insulin and the protease inhibitor agent | – | – | – | – | – | – | – | – | – | – | – | –
2 | Insulin | – | 28.7 mm | 23.3 mm | 21.5 mm | 19.9 mm | 15.6 mm | 12.9 mm | 10.9 mm | 8.5 mm | 6.5 mm | 6.4 mm | 6.5 mm | approximately 50%
